Experimental findings from the NIST ThermoML archive (doi:10.1016/j.fluid.2011.11.030) are described below.

± gives the expanded uncertainty stated by the source.

The conditions of one data set: 298.15 K; 101.33 kPa; Liquid; Capillary tube (Ostwald / Ubbelohde) method.
Usually viscosity stands for the internal friction of a fluid under shear. As for `CCCCCCCCn1cc[n+](C)c1.O=S(=O)([O-])C(F)(F)C(F)F`, the viscosity is recorded as 279.4 ± 29 mPa·s.

On to `CCCCn1cc[n+](C)c1.N#CN=C=[N-]` [1-butyl-3-methylimidazolium dicyanamide], for which the viscosity is 30.1 ± 3.2 mPa·s.

As for `CCCC[n+]1ccc(C)cc1.F[B-](F)(F)F` [1-butyl-4-methylpyridinium tetrafluoroborate], the viscosity came to 205.5 ± 21 mPa·s.

Staying with this data set, now noted: 298.15 K; 101.33 kPa; Liquid; Pycnometric method.
Broadly, the mass density is the mass of a sample divided by its volume. Consider `CCCCCCCCn1cc[n+](C)c1.O=S(=O)([O-])C(F)(F)C(F)F`, for which the mass density came to 1233 ± 2 kg/m3.

As for `CCCCn1cc[n+](C)c1.N#CN=C=[N-]` [1-butyl-3-methylimidazolium dicyanamide], the mass density amounted to 1065 ± 3 kg/m3.

`CCCC[n+]1ccc(C)cc1.F[B-](F)(F)F` [1-butyl-4-methylpyridinium tetrafluoroborate]: the mass density was 1185 ± 2 kg/m3.

The same data set, now with this note: 323.15 K; 101.33 kPa; Liquid; Capillary tube (Ostwald / Ubbelohde) method.
On to `CCCCCCCCn1cc[n+](C)c1.O=S(=O)([O-])C(F)(F)C(F)F`, for which the viscosity is 79.8 ± 8.1 mPa·s.

For the compound `CCCCn1cc[n+](C)c1.N#CN=C=[N-]` [1-butyl-3-methylimidazolium dicyanamide], the viscosity worked out at 13.5 ± 1.6 mPa·s.

`CCCC[n+]1ccc(C)cc1.F[B-](F)(F)F` [1-butyl-4-methylpyridinium tetrafluoroborate]: the viscosity turned out to be 52.7 ± 5.3 mPa·s.

The data set is the same for the next values; noted with them: 323.15 K; 101.33 kPa; Liquid; Pycnometric method.
As to `CCCCCCCCn1cc[n+](C)c1.O=S(=O)([O-])C(F)(F)C(F)F`, the mass density was found to be 1215 ± 2 kg/m3.

With `CCCCn1cc[n+](C)c1.N#CN=C=[N-]` [1-butyl-3-methylimidazolium dicyanamide], the mass density came to 1050 ± 3 kg/m3.

On to `CCCC[n+]1ccc(C)cc1.F[B-](F)(F)F` [1-butyl-4-methylpyridinium tetrafluoroborate], for which the mass density was 1171 ± 2 kg/m3.

The same data set, now with this note: 348.15 K; 101.33 kPa; Liquid; Capillary tube (Ostwald / Ubbelohde) method.
Take `CCCCCCCCn1cc[n+](C)c1.O=S(=O)([O-])C(F)(F)C(F)F`: the viscosity was 32.5 ± 3.3 mPa·s.

With `CCCCn1cc[n+](C)c1.N#CN=C=[N-]` [1-butyl-3-methylimidazolium dicyanamide], the viscosity was found to be 7.7 ± 1.1 mPa·s.

Regarding `CCCC[n+]1ccc(C)cc1.F[B-](F)(F)F` [1-butyl-4-methylpyridinium tetrafluoroborate], the viscosity was determined as 21.3 ± 2.1 mPa·s.

Staying with this data set, now noted: 348.15 K; 101.33 kPa; Liquid; Pycnometric method.
For the compound `CCCCCCCCn1cc[n+](C)c1.O=S(=O)([O-])C(F)(F)C(F)F`, the mass density turned out to be 1196 ± 2 kg/m3.

In the case of `CCCCn1cc[n+](C)c1.N#CN=C=[N-]` [1-butyl-3-methylimidazolium dicyanamide], the mass density worked out at 1036 ± 3 kg/m3.

As for `CCCC[n+]1ccc(C)cc1.F[B-](F)(F)F` [1-butyl-4-methylpyridinium tetrafluoroborate], the mass density was 1154 ± 2 kg/m3.

Staying with this data set, now noted: 373.15 K; 101.33 kPa; Liquid; Capillary tube (Ostwald / Ubbelohde) method.
`CCCCCCCCn1cc[n+](C)c1.O=S(=O)([O-])C(F)(F)C(F)F`: the viscosity worked out at 15.3 ± 1.5 mPa·s.

With `CCCCn1cc[n+](C)c1.N#CN=C=[N-]` [1-butyl-3-methylimidazolium dicyanamide], the viscosity was 4.9 ± 0.9 mPa·s.

`CCCC[n+]1ccc(C)cc1.F[B-](F)(F)F` [1-butyl-4-methylpyridinium tetrafluoroborate]: the viscosity is given as 10.5 ± 1.1 mPa·s.

Still in this data set, the particulars now being: 373.15 K; 101.33 kPa; Liquid; Pycnometric method.
For `CCCCCCCCn1cc[n+](C)c1.O=S(=O)([O-])C(F)(F)C(F)F`, the mass density worked out at 1176 ± 2 kg/m3.

As for `CCCCn1cc[n+](C)c1.N#CN=C=[N-]` [1-butyl-3-methylimidazolium dicyanamide], the mass density turned out to be 1026 ± 3 kg/m3.

Regarding `CCCC[n+]1ccc(C)cc1.F[B-](F)(F)F` [1-butyl-4-methylpyridinium tetrafluoroborate], the mass density is on record as 1144 ± 2 kg/m3.
